Source: US20240360113A1, “AMINOARYL-INTEGRIN AGONISTS COMPOUNDS” (Texas Heart Institute, priority 2021, published 2024)

Legend:
αLβ2/ICAM-1 = molecular target: T1, αLβ2/ICAM-1 (Homo sapiens, UniProt P05107+P20701); assay: Static cell adhesion assay, HSB cells on ICAM-1 (LFA-1; LAD); assay type: cell-based; details: RFU of compound / RFU of THI0349, both at the same concentration
T1 construct: The Jurkat (VCAM-1 assays) and HSB (ICAM-1 assays) cell lines were obtained from American Type Culture Collection; endogenous in cells; host or cells: HSB (ATCC)
T1 sequence (P20701 26-1170): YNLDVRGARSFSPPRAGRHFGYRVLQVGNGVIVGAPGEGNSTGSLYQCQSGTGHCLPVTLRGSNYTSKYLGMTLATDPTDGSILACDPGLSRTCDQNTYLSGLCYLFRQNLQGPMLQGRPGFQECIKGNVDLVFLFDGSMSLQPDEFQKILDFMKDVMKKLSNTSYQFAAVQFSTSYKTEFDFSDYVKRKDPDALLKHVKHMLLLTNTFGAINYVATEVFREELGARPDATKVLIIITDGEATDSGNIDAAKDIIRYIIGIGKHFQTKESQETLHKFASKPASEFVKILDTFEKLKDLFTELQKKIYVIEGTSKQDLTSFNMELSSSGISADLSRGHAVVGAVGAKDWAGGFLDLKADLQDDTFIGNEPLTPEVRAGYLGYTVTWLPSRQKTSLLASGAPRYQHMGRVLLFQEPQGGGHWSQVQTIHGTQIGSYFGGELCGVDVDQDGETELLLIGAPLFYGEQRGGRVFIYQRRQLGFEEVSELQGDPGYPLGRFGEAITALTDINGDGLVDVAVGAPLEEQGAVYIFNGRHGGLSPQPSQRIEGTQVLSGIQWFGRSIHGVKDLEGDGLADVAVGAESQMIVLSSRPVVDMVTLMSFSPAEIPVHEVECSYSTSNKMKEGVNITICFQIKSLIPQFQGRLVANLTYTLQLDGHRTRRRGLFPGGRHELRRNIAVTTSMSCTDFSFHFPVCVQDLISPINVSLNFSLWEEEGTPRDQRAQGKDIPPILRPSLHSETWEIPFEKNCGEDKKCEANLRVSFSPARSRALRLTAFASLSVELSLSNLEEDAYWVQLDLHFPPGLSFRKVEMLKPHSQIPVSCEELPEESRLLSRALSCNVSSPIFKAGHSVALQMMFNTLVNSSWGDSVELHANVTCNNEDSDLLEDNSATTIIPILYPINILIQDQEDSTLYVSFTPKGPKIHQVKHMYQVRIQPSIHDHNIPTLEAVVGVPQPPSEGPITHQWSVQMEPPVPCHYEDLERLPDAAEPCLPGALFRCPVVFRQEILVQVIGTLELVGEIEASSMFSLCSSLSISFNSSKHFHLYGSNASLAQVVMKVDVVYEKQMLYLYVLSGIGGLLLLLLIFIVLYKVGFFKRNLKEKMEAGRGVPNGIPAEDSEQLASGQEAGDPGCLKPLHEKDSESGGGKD
T1 sequence (P05107 23-769): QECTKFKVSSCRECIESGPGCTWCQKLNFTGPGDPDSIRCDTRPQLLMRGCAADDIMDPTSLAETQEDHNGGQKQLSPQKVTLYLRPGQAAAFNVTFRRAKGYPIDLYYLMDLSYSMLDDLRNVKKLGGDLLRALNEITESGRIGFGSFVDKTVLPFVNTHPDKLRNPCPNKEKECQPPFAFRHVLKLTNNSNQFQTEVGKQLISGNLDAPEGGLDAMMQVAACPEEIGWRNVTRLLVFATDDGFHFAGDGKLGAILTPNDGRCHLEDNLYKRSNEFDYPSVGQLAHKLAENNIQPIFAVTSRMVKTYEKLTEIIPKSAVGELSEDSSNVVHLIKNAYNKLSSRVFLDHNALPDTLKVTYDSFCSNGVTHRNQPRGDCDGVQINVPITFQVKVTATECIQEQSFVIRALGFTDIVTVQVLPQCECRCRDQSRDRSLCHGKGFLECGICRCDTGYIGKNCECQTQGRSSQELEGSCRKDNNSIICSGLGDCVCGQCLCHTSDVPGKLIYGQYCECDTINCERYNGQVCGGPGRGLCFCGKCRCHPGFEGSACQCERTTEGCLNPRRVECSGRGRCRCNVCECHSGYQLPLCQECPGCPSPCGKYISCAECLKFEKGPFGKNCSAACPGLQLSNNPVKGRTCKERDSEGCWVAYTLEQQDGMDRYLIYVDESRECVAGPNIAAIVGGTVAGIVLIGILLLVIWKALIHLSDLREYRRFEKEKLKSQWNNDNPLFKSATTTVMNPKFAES
Procedure, shortened: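 HSB cells were labeled with calcein-AM for 30 minutes, washed, resuspended in binding buffer (PBS with 2 mM MgCl2, 5 mM EGTA, 50% FBS) and plated at 2×10^5 cells/well in triplicate onto 96-well plates coated overnight at 4° C with ICAM-1 (5 μg/mL in 50 μL TBS) and blocked with 2% BSA. Compounds were tested in 1% DMSO. After 30 minutes at 37° C and three washes, adherent cells were lysed and fluorescence was read; results are compound RFU divided by THI0349 RFU.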

α4β1/VCAM-1 = molecular target: T2, α4β1/VCAM-1 (Homo sapiens, UniProt P05556+P13612); assay: Static cell adhesion assay, Jurkat cells on VCAM-1 (VLA-4 agonist activity); assay type: cell-based; details: EC50 relative to THI0349 (average 11 uM) run on the same plate; Jurkat cells, 50% FBS
T2 construct: The Jurkat (VCAM-1 assays) and HSB (ICAM-1 assays) cell lines were obtained from American Type Culture Collection; endogenous in cells; host or cells: Jurkat (ATCC)
T2 sequence (P13612 34-1032): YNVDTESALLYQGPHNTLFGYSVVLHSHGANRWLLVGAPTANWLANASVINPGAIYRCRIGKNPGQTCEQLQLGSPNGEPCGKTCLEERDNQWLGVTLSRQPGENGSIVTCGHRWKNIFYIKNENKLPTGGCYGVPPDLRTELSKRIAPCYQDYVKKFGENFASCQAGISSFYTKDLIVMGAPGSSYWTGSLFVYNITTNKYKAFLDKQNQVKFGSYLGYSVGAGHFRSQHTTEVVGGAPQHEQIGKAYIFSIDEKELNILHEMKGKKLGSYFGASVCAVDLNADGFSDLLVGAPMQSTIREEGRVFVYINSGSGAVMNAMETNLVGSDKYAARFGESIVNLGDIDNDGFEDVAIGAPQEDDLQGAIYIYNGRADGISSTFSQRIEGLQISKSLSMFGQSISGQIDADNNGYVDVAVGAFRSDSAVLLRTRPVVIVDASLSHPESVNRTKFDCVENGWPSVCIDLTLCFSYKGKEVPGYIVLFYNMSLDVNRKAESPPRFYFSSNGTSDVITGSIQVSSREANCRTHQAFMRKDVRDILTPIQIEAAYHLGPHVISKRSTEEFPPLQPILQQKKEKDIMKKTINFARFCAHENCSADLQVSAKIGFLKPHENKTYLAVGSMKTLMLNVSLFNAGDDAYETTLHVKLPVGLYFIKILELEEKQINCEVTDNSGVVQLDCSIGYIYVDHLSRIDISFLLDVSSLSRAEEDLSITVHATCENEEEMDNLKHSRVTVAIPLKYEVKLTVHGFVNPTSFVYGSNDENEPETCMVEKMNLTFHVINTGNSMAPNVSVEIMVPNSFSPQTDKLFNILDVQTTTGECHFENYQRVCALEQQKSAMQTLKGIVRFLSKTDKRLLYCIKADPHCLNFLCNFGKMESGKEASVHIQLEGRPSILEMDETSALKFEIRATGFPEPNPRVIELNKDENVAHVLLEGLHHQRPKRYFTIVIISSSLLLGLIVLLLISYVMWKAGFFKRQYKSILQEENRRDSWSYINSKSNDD
T2 sequence (P05556 21-798): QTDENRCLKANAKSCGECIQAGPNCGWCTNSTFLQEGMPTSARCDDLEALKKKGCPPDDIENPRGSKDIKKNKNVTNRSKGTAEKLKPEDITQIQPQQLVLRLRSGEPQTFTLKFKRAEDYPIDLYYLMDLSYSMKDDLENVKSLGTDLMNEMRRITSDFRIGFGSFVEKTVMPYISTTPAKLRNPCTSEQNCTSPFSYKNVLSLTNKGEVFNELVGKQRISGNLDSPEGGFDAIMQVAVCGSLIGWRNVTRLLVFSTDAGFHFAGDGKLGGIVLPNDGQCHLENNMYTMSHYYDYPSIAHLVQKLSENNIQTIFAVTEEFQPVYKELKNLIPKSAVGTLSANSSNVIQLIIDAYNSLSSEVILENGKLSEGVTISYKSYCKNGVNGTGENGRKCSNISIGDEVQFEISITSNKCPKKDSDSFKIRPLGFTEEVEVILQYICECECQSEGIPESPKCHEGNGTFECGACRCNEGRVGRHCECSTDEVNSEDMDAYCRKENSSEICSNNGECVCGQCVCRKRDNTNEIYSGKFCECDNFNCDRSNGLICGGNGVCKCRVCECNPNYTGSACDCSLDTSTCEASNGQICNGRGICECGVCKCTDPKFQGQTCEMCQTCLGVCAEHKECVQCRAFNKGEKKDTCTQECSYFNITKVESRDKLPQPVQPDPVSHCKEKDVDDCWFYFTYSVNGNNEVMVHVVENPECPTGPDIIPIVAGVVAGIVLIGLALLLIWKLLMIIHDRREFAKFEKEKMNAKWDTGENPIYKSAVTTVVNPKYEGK
Procedure, shortened: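 Calcein-labelled Jurkat cells (2×10^5/well) were added to wells coated with a sub-optimal level of human VCAM-1 (0.5 μg/mL) in PBS, 1 mM MgCl2, 50% FBS with compound in 1% DMSO. After 30 min at 37° C. and washing, adherent-cell fluorescence was read. EC50 was the concentration giving 50% of maximal response.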

SMILES | LAD Raw Fluorescence Units against LFA-1; Dose 3 µM; Ratio of raw counts Compound/THI0349 (αLβ2/ICAM-1) | Group against VCAM (α4β1/VCAM-1)
COc1ccc(CCOCc2csc(N(Cc3cccc(OC)c3)Cc3cccc(OC)c3)n2)cc1 [Compound 40, N,N-bis(3-methoxybenzyl)-4-((4-methoxyphenethoxy)methyl)thiazol-2-amine] | 0.4 | III (Group III more than five times the EC50 of THI0349)
COc1cccc(CN(Cc2cccc(OC)c2)c2nc(COCCN3CCN(C)CC3)cs2)c1 [Compound 66, N,N-bis(3-methoxybenzyl)-4-((2-(4-methylpiperazin-1-yl)ethoxy)methyl)thiazol-2-amine] | 0.27 | II (Group II is more than twice that of THI0349 but less than five times THI0349's EC50)
COc1cccc(CN(Cc2cccc(OC)c2)c2nc(COCCN3CCOCC3)co2)c1 [Compound 87, N,N-bis(3-methoxybenzyl)-4-((2-morpholinoethoxy)methyl)oxazol-2-amine] | 0.2 | I (Group I maintains at least the same potency or better up to more than twice that of the EC50 of THI0349 ran on the same plate)
CCc1nnc(N(Cc2cccc(OC)c2)Cc2cccc(OC)c2)s1 [Compound 94, 5-ethyl-N,N-bis(3-methoxybenzyl)-1,3,4-thiadiazol-2-amine] | 0.29 | III (Group III more than five times the EC50 of THI0349)
COc1cccc(CN(Cc2cccc(OC)c2)c2nc(COCCO)cs2)c1 [Compound 33, 2-((2-(bis(3-methoxybenzyl)amino)thiazol-4-yl)methoxy)ethanol] | 0.31 | III (Group III more than five times the EC50 of THI0349)
COc1cccc(CN(Cc2cccc(OC)c2)c2nc(COCCOCCOc3ccccc3)cs2)c1 [Compound 43, N,N-bis(3-methoxybenzyl)-4-((2-(2-phenoxyethoxy)ethoxy)methyl)thiazol-2-amine] | 0.80 | I (Group I maintains at least the same potency or better up to more than twice that of the EC50 of THI0349 ran on the same plate)
COc1cccc(CN(Cc2cccc(-n3ccnc3)c2)c2nc(CN3CCOCC3)cs2)c1 [Compound 79, N-(3-(1H-imidazol-1-yl)benzyl)-N-(3-methoxybenzyl)-4-(morpholinomethyl)thiazol-2-amine] | 0.32 | II (Group II is more than twice that of THI0349 but less than five times THI0349's EC50)
COc1cccc(COCc2csc(N(C)Cc3cccc(OC)c3)n2)c1 [Compound 112, N-(3-methoxybenzyl)-4-((3-methoxybenzyloxy)methyl)-N-methylthiazol-2-amine] | 0.04 | III (Group III more than five times the EC50 of THI0349)
COCCOc1cccc(CN(Cc2cccc(OCCOC)c2)c2nc(C)cs2)c1 [Compound 30, N,N-bis(3-(2-methoxyethoxy)benzyl)-4-methylthiazol-2-amine] | 1.2 | III (Group III more than five times the EC50 of THI0349)
COc1cccc(COCc2csc(N(Cc3cccc(OC)c3)Cc3cccc(OC)c3)n2)c1 [Compound 38, N,N-bis(3-methoxybenzyl)-4-((3-methoxybenzyloxy)methyl)thiazol-2-amine] | 0.16 | III (Group III more than five times the EC50 of THI0349)
COc1cccc(CN(Cc2cccc(OC)c2)c2nc(CN3CCN(C)CC3)cs2)c1 [Compound 69, N,N-bis(3-methoxybenzyl)-4-((4-methylpiperazin-1-yl)methyl)thiazol-2-amine] | 0.33 | II (Group II is more than twice that of THI0349 but less than five times THI0349's EC50)
COc1cccc(CN(Cc2cccc(-n3cccn3)c2)c2nc(CN3CCOCC3)cs2)c1 [Compound 80, N-(3-(1H-pyrazol-1-yl)benzyl)-N-(3-methoxybenzyl)-4-(morpholinomethyl)thiazol-2-amine] | 0.53 | I (Group I maintains at least the same potency or better up to more than twice that of the EC50 of THI0349 ran on the same plate)
COc1cccc(CN(Cc2cccc(OC)c2)c2nc(COCCOCCOc3cccc(OC)c3)cs2)c1 [Compound 42, N,N-bis(3-methoxybenzyl)-4-((2-(2-(3-methoxyphenoxy)ethoxy)ethoxy)methyl)thiazol-2-amine] | 1.6 | I (Group I maintains at least the same potency or better up to more than twice that of the EC50 of THI0349 ran on the same plate)
COc1cccc(CN(Cc2cccc(OC)c2)c2nc(COCCOCc3ccccc3)cs2)c1 [Compound 58, 4-((2-(benzyloxy)ethoxy)methyl)-N,N-bis(3-methoxybenzyl)thiazol-2-amine] | 0.48 | I (Group I maintains at least the same potency or better up to more than twice that of the EC50 of THI0349 ran on the same plate)
CCOC(=O)c1csc(N(C)Cc2cccc(OC)c2)n1 [Compound 106, ethyl 2-((3-methoxybenzyl)(methyl)amino)thiazole-4-carboxylate] | 0.05 | III (Group III more than five times the EC50 of THI0349)
COc1cccc(CN(Cc2cccc(OC)c2)c2nc(COCCOCCOc3ccc(N(C)C)cc3)cs2)c1 [Compound 46, 4-((2-(2-(4-(dimethylamino)phenoxy)ethoxy)ethoxy)methyl)-N,N-bis(3-methoxybenzyl)thiazol-2-amine] | 1.5 | I (Group I maintains at least the same potency or better up to more than twice that of the EC50 of THI0349 ran on the same plate)
COc1cccc(CN(Cc2cccc(OC)c2)c2cnc(CCOc3ccccc3)o2)c1 [Compound 27, N,N-bis(3-methoxybenzyl)-2-(2-phenoxyethyl)oxazol-5-amine] | 0.28 | III (Group III more than five times the EC50 of THI0349)
COc1cccc(COCc2csc(N(Cc3ccc(-n4cccn4)cc3)Cc3cccc(OC)c3)n2)c1 [Compound 104, N-(4-(1H-pyrazol-1-yl)benzyl)-N-(3-methoxybenzyl)-4-((3-methoxybenzyloxy)methyl)thiazol-2-amine] | 0.28 | I (Group I maintains at least the same potency or better up to more than twice that of the EC50 of THI0349 ran on the same plate)
COc1cccc(CN(Cc2cccc(OC)c2)c2nc(COCCOCCOc3ccc(Cl)cc3)cs2)c1 [Compound 44, 4-((2-(2-(4-chlorophenoxy)ethoxy)ethoxy)methyl)-N,N-bis(3-methoxybenzyl)thiazol-2-amine] | 0.77 | I (Group I maintains at least the same potency or better up to more than twice that of the EC50 of THI0349 ran on the same plate)
CCOC(=O)c1cnc(N(Cc2cccc(OC)c2)Cc2cccc(OC)c2)nc1 [Compound 96, ethyl 2-(bis(3-methoxybenzyl)amino)pyrimidine-5-carboxylate] | 0.08 | III (Group III more than five times the EC50 of THI0349)
COc1cccc(CN(Cc2cccc(OC)c2)c2nc(COCCOCCN3CCN(C)CC3)cs2)c1 [Compound 63, N,N-bis(3-methoxybenzyl)-4-((2-(2-(4-methylpiperazin-1-yl)ethoxy)ethoxy)methyl)thiazol-2-amine] | 0.5 | III (Group III more than five times the EC50 of THI0349)
COc1ccc(CN(Cc2ccc(OC)cc2)c2nc(COCCOCCOCc3csc(N(Cc4ccc(OC)cc4)Cc4ccc(OC)cc4)n3)cs2)cc1 [Compound 35, 4,4′-(2,2′-oxybis(ethane-2,1-diyl)bis(oxy))bis(methylene)bis(N,N-bis(4-methoxybenzyl)thiazol-2-amine)] | 0.98 | II (Group II is more than twice that of THI0349 but less than five times THI0349's EC50)
COc1ccc(CCCNC(=O)c2cnc(N(Cc3cccc(OC)c3)Cc3cccc(OC)c3)o2)cc1 [Compound 22, 2-(bis(3-methoxybenzyl)amino)-N-(3-(4-methoxyphenyl)propyl)oxazole-5-carboxamide] | 0.69 | I (Group I maintains at least the same potency or better up to more than twice that of the EC50 of THI0349 ran on the same plate)
